The values below come from EP2567943A1, “TITANIUM COAGULANT FOR NATURAL AND WASTE WATER PURIFICATION AND DISINFECTION AND METHOD FOR UTILIZING THEREOF” (Sittec Closed Joint Stock Company (Sittec CJSC), priority 2007, dated 2009).

In general, LD50 refers to the dose at which mortality reaches 50%. Low readings indicate a more toxic substance, high ones a less toxic substance.

A short description of data set [1]: acute toxicity (hazard indices). Particulars: in vivo. Here is the method:
(§1) Testing the safe method for producing and utilizing the claimed titanium coagulant (absence of mutagenous impact; sensibilizing, allergenic, carcinogenic, gonadotoxic and other action) was carried out on the base of the State organ SRI of human ecology and environmental hygiene named after A.N. Sysin of the Russian Academy of Medical Sciences (RAMS).
(§2) Particularly, derivatives of aluminium oxychloride (AOC) and aluminium sulfate are monitored in accordance with the aluminium content in potable water. While testing the new coagulant, the same principles for evaluating the titanium coagulant safety as the safety evaluation of coagulants based on aluminium were applied. […]

Data set [2] is described as follows: hygienic hazard indices in water. The protocol: as §1, §2
One can see from the Table 22 that the method for producing the titanium coagulant and the coagulant generally are safe by the main hygienic indices, and control of the titanium coagulant content in purified water should be performed in accordance with the titanium and aluminium content therein pursuant to the MAC of 0.1 mg/L and 0.2 mg/L, respectively, established for them.

For `[Al]` [Aluminium], the LD50 in data set [1] is 180 to 1360 mg/kg. For the same compound, the L.conc. in data set [2] (muddiness) is on record as 0.2 (muddiness) mg/L.
Turning to Titanium, in data set [1], the LD50 was 150 mg/kg. Moreover, in data set [2], the Min.possi bl came out at 1.0 mg/kg. The L.conc. in data set [2] (retardation) was 0.1 (retardation) mg/L; in data set [2] (taint), 4.5 (taint) mg/L.
In data set [2], “aluminium oxychloride [AOC, reference compound]” registered an MAC of 1.5 mg/L and a Min.possi bl of 1.0 mg/kg. In addition, the L.conc. in data set [2] (muddiness) is reported as 1.45 (muddiness) mg/L. Further, the L.conc. in data set [2] (retardation) is on record as 1.0 (retardation) mg/L.
